Data taken from patent US10947227B2, “Tricyclic heterocyclic compounds as sting activators” (Incyte Corporation, priority 2018, dated 2021).
pEC50: −log10 of the molar value.

Test system: IRF3 activation in THP-1 Dual Cells
Experiment: IRF3 activation assay in THP-1 Dual Cells (QUANTI-Blue readout)
Format: cell-based
Conditions: Homo sapiens, THP1-Dual, 24 h
Method: THP-1 Dual Cells (Invivogen) were maintained in RPMI1640 medium with addition of 10% FBS, 100 μg/ml zeocin, 10 μg/ml blasticidin. Cells were added in a 96-well flat bottom assay plate at 100,000 per well in 100 μL complete RPMI medium. Test compounds were prepared by serial dilution in complete RPMI medium and 100 μL test compounds were transferred to each corresponding well. The assay plate was incubated at 37° C., 5% CO2 for 24 hours. After the overnight incubation, 20 μL of the culture supernatants were collected, followed by addition of 180 μL of QUANTI-Blue (Invivogen) to assess IRF3 activity. The amount of IRF3 activation was assessed by reading the absorbance at 620-655 nm with a microplate reader 2 hours later. The culture supernatant from the untreated THP-1 cells was used as the negative control. To determine the NF-κB activation, another 20 μL of culture supernatant were transferred to a 96-well white plate, followed by addition of 50 μL of Quanti-Luc™ assay solution (Invivogen). The amount of NF-κB activation induced by the test compounds were determined by the luminescence above the untreated control. EC50 determination was performed by fitting the curve of percent control activity versus the log of the compound concentration using the GraphPad Prism 6.0 software.

pEC50 (Table 2, 24 hours incubation)	pEC50 (Table 1, 24 hours incubation)	Structure (SMILES)
> 7.30		CCn1nc(C)cc1C(=O)Nc1nc2cc(C(N)=O)cc(OCCCO)c2n1C/C=C/Cn1c2nc(-c3cc(C)nn3CC)ncc2c2cc(C(N)=O)cc(OCCCNC(=O)OCCC(=O)O)c21 [Example 49, (E)-3-(3-(6-carbamoyl-9-(4-(5-carbamoyl-2-(1-ethyl-3-methyl-1H-pyrazole-5-carboxamido)-7-(3-hydroxypropoxy)-1H-benzo[d]imidazol-1-yl)but-2-enyl)-2-(1-ethyl-3-methyl-1H-pyrazol-5-yl)-9H-pyrimido[4,5-b]indol-8-yloxy)propylcarbamoyloxy)propanoic Acid]
> 7.30		CCn1nc(C)cc1C(=O)Nc1nc2cc(C(N)=O)cc(OCCO)c2n1C/C=C/Cn1c2nc(-c3cc(C)nn3CC)ncc2c2cc(C(N)=O)cc(OCCCOC)c21 [Example 36, (E)-9-(4-(5-carbamoyl-2-(1-ethyl-3-methyl-1H-pyrazole-5-carboxamido)-7-(2-hydroxyethoxy)-1H-benzo[d]imidazol-1-yl)but-2-en-1-yl)-2-(1-ethyl-3-methyl-1H-pyrazol-5-yl)-8-(3-methoxypropoxy)-9H-pyrimido[4,5-b]indole-6-carboxamide]
> 7.30		CCn1nc(C)cc1C(=O)Nc1nc2cc(C(N)=O)cc(OCCCC#N)c2n1C/C=C/Cn1c2nc(-c3cc(C)nn3CC)ncc2c2cc(C(N)=O)cc(OCCCOC)c21 [Example 29, (E)-9-(4-(5-carbamoyl-7-(3-cyanopropoxy)-2-(1-ethyl-3-methyl-1H-pyrazole-5-carboxamido)-1H-benzo[d]imidazol-1-yl)but-2-en-1-yl)-2-(1-ethyl-3-methyl-1H-pyrazol-5-yl)-8-(3-methoxypropoxy)-9H-pyrimido[4,5-b]indole-6-carboxamide]
> 7.30	> 6.70	CCn1nc(C)cc1C(=O)Nc1nc2cc(C(N)=O)cc(C)c2n1C/C=C/Cn1c2ccc(C(N)=O)cc2c2cc(F)c(-c3cc(C)nn3CC)nc21 [Example 24, (E)-9-(4-(5-carbamoyl-2-(1-ethyl-3-methyl-1H-pyrazole-5-carboxamido)-7-methyl-1H-benzo[d]imidazol-1-yl)but-2-en-1-yl)-2-(1-ethyl-3-methyl-1H-pyrazol-5-yl)-3-fluoro-9H-pyrido[2,3-b]indole-6-carboxamide]
> 7.30		CCn1nc(C)cc1C(=O)Nc1nc2cc(C(N)=O)cc(OCCCO)c2n1C/C=C/Cn1c2nc(-c3cc(C)nn3CC)ncc2c2cc(C(N)=O)cc(OCCCNC(=O)CCCC(=O)O)c21 [Example 48, (E)-5-(3-(6-carbamoyl-9-(4-(5-carbamoyl-2-(1-ethyl-3-methyl-1H-pyrazole-5-carboxamido)-7-(3-hydroxypropoxy)-1H-benzo[d]imidazol-1-yl)but-2-enyl)-2-(1-ethyl-3-methyl-1H-pyrazol-5-yl)-9H-pyrimido[4,5-b]indol-8-yloxy)propylamino)-5-oxopentanoic Acid]
> 7.30		CCn1nc(C)cc1C(=O)Nc1nc2cc(C(N)=O)cc(OCCCOC)c2n1C/C=C/Cn1c2nc(-c3cc(C)nn3CC)ncc2c2cc(C(N)=O)cc(OCCCNC(=O)OCCC(=O)O)c21 [Example 51, (E)-3-(3-(6-carbamoyl-9-(4-(5-carbamoyl-2-(1-ethyl-3-methyl-1H-pyrazole-5-carboxamido)-7-(3-methoxypropoxy)-1H-benzo[d]imidazol-1-yl)but-2-enyl)-2-(1-ethyl-3-methyl-1H-pyrazol-5-yl)-9H-pyrimido[4,5-b]indol-8-yloxy)propylcarbamoyloxy)propanoic Acid]
6.30 to 6.70	> 6.00	CCn1nc(C)cc1C(=O)Nc1nc2cc(C(N)=O)cc(C)c2n1C/C=C/Cn1c2ccc(C(N)=O)cc2c2cc(C#N)c(-c3cc(C)nn3CC)nc21 [Example 25, (E)-9-(4-(5-carbamoyl-2-(1-ethyl-3-methyl-1H-pyrazole-5-carboxamido)-7-methyl-1H-benzo[d]imidazol-1-yl)but-2-en-1-yl)-3-cyano-2-(1-ethyl-3-methyl-1H-pyrazol-5-yl)-9H-pyrido[2,3-b]indole-6-carboxamide]
6.70 to 7.30		CCn1nc(C)cc1C(=O)Nc1nc2cc(C(N)=O)cc(OCCCNC(=O)[C@@H](N)CC(=O)O)c2n1C/C=C/Cn1c2nc(-c3cc(C)nn3CC)ncc2c2cc(C(N)=O)cc(OCCCOC)c21 [Example 42, (S,E)-3-amino-4-((3-((5-carbamoyl-1-(4-(6-carbamoyl-2-(1-ethyl-3-methyl-1H-pyrazol-5-yl)-8-(3-methoxypropoxy)-9H-pyrimido[4,5-b]indol-9-yl)but-2-en-1-yl)-2-(1-ethyl-3-methyl-1H-pyrazole-5-carboxamido)-1H-benzo[d]imidazol-7-yl)oxy)propyl)amino)-4-oxobutanoic Acid]
6.70 to 7.30		CCn1nc(C)cc1C(=O)Nc1nc2cc(C(N)=O)cc(OCCCOC)c2n1C/C=C/Cn1c2nc(-c3cc(C)nn3CC)ncc2c2cc(C(N)=O)cc(OCCOCCOCCOCCC(=O)O)c21 [Example 54, (E)-3-(2-(2-(2-(6-carbamoyl-9-(4-(5-carbamoyl-2-(1-ethyl-3-methyl-1H-pyrazole-5-carboxamido)-7-(3-methoxypropoxy)-1H-benzo[d]imidazol-1-yl)but-2-enyl)-2-(1-ethyl-3-methyl-1H-pyrazol-5-yl)-9H-pyrimido[4,5-b]indol-8-yloxy)ethoxy)ethoxy)ethoxy)propanoic Acid]

Continued, compound first:

Structure (SMILES)	pEC50 (Table 2, 24 hours incubation)	pEC50 (Table 1, 24 hours incubation)
CCn1nc(C)cc1C(=O)Nc1nc2cc(C(N)=O)cc(OCCCOC(=O)c3cc(C)nn3CC)c2n1C/C=C/Cn1c2nc(-c3cc(C)nn3CC)ncc2c2cc(C(N)=O)cc(OCCCOC)c21 [Example 21, (E)-3-((5-carbamoyl-1-(4-(6-carbamoyl-2-(1-ethyl-3-methyl-1H-pyrazol-5-yl)-8-(3-methoxypropoxy)-9H-pyrimido[4,5-b]indol-9-yl)but-2-en-1-yl)-2-(1-ethyl-3-methyl-1H-pyrazole-5-carboxamido)-1H-benzo[d]imidazol-7-yl)oxy)propyl 1-ethyl-3-methyl-1H-pyrazole-5-carboxylate]	> 7.30	> 6.70
CCn1nc(C)cc1C(=O)Nc1nc2cc(C(N)=O)cc(C)c2n1C/C=C/Cn1c2nc(-c3cc(C)nn3CC)ncc2c2cc(C(N)=O)cc(OC)c21 [Example 10, (E)-9-(4-(5-carbamoyl-2-(1-ethyl-3-methyl-1H-pyrazole-5-carboxamido)-7-methyl-1H-benzo[d]imidazol-1-yl)but-2-enyl)-2-(1-ethyl-3-methyl-1H-pyrazol-5-yl)-8-methoxy-9H-pyrimido[4,5-b]indole-6-carboxamide]	> 7.30	> 6.70
CCn1nc(C)cc1C(=O)Nc1nc2cc(C(N)=O)cc(OCCCO)c2n1C/C=C/Cn1c2nc(-c3cc(C)nn3CC)ncc2c2cc(C(N)=O)cc(OCCCOC)c21 [Example 22, (E)-9-(4-(5-carbamoyl-2-(1-ethyl-3-methyl-1H-pyrazole-5-carboxamido)-7-(3-hydroxypropoxy)-1H-benzo[d]imidazol-1-yl)but-2-en-1-yl)-2-(1-ethyl-3-methyl-1H-pyrazol-5-yl)-8-(3-methoxypropoxy)-9H-pyrimido[4,5-b]indole-6-carboxamide]	> 7.30	> 6.70
CCc1nn(C)cc1-c1ncc2c3cc(C(N)=O)ccc3n(C/C=C/Cn3c(NC(=O)c4cc(C)nn4CC)nc4cc(C(N)=O)cc(C)c43)c2n1 [Example 8, (E)-9-(4-(5-carbamoyl-2-(1-ethyl-3-methyl-1H-pyrazole-5-carboxamido)-7-methyl-1H-benzo[d]imidazol-1-yl)but-2-enyl)-2-(3-ethyl-1-methyl-1H-pyrazol-4-yl)-9H-pyrimido[4,5-b]indole-6-carboxamide]	6.00 to 6.30	> 6.00
CCn1nc(C)cc1C(=O)Nc1nc2cc(C(N)=O)cc(C)c2n1C/C=C/Cn1c2nc(-c3cc(C)nn3CC)ncc2c2cc(C(N)=O)cc(OCCCO)c21 [Example 13, (E)-9-(4-(5-carbamoyl-2-(1-ethyl-3-methyl-1H-pyrazole-5-carboxamido)-7-methyl-1H-benzo[d]imidazol-1-yl)but-2-enyl)-2-(1-ethyl-3-methyl-1H-pyrazol-5-yl)-8-(3-hydroxypropoxy)-9H-pyrimido[4,5-b]indole-6-carboxamide]	> 7.30	> 6.70
CCCn1nc(C)cc1-c1ncc2c3cc(C(N)=O)ccc3n(C/C=C/Cn3c(NC(=O)c4cc(C)nn4CC)nc4cc(C(N)=O)cc(C)c43)c2n1 [Example 6, (E)-9-(4-(5-carbamoyl-2-(1-ethyl-3-methyl-1H-pyrazole-5-carboxamido)-7-methyl-1H-benzo[d]imidazol-1-yl)but-2-enyl)-2-(3-methyl-1-propyl-1H-pyrazol-5-yl)-9H-pyrimido[4,5-b]indole-6-carboxamide]	> 7.30	> 6.70
CCn1nc(C)cc1C(=O)Nc1nc2cc(C(N)=O)cc(OC)c2n1C/C=C/Cn1c2ccc(C(N)=O)cc2c2cnc(-c3cc(C)nn3CC)nc21 [Example 4, (E)-9-(4-(5-carbamoyl-2-(1-ethyl-3-methyl-1H-pyrazole-5-carboxamido)-7-methoxy-1H-benzo[d]imidazol-1-yl)but-2-enyl)-2-(1-ethyl-3-methyl-1H-pyrazol-5-yl)-9H-pyrimido[4,5-b]indole-6-carboxamide]	6.00 to 6.30	> 6.00
